From paper PMC12903969, “Discovery of a Novel and Potent Kir4.1 Inhibitor as a Safe and Rapid‐Onset Antidepressant Agent in Mice” (Advanced Science, 2025)
Where two headings read alike, the source gives them in different places.

What was measured:
Kir4.1 = target: T1, Kir4.1 (Homo sapiens, UniProt P78508); assay: Whole-cell patch clamp, Kir4.1 currents in transfected CHO-K1 cells; format: cell-based; conditions: for inhibition at 10 µM: CHO-K1, 10 μM; for inhibition at 1 µM: CHO-K1, 1 μM; for inhibition at 0.5 µM: CHO-K1, 0.5 μM; for IC50: whole-cell patch clamp
T1 construct: host or cells: CHO-K1
T1 sequence (P78508 1-379): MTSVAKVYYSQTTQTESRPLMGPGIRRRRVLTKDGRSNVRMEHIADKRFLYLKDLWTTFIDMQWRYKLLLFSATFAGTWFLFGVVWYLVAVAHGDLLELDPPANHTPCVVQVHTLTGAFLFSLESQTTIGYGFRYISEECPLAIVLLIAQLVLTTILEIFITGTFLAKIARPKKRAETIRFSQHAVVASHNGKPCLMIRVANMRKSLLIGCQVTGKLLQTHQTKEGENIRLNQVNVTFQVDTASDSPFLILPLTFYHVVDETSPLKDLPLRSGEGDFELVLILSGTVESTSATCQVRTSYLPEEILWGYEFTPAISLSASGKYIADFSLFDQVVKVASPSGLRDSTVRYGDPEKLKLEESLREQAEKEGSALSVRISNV
Experimental: Plasmids encoding WT human potassium channels Kir1.1, Kir2.1, Kir2.2, Kir4.1, and Kir4.2 were obtained from the Beijing Genomics Institute. All point mutations were constructed using the QuickChange II Site‐Directed Mutagenesis Kit (Stratagene) and subsequently verified by sequencing.
CHO‐K1 cells were maintained in DMEM/F12 growth medium containing 10% fetal bovine serum. Plasmids encoding the target genes (3600 ng) and enhanced green fluorescent protein (400 ng) were cotransfected into cells using Lipofectamine 2000 (Invitrogen) in accordance with the manufacturer's instructions. Cells were seeded onto poly‐d‐lysine (PDL)‐coated glass coverslips 1 h prior to electrophysiological recordings. All cells were cultured under standard conditions of 5% CO2 at 37 °C.
Whole‐cell patch‐clamp recordings were obtained either in transiently transfected CHO‐K1 cells or in primary cultured astrocytes at room temperature using standard patch‐clamp techniques with an Axopatch‐700B amplifier (Axon Instruments). The signals were filtered at 2 kHz and sampled at 20 kHz using the Digidata 1440A interface (Axon Instruments). The resistance of borosilicate glass pipettes was typically 2–4 MΩ when filled with the internal solution. Drug application was facilitated using a BPS perfusion system (ALA Scientific Instruments). Macroscopic currents generated by expressed potassium channels were recorded under the voltage‐clamp conditions with an internal pipette solution composed of (in mM): 140 KCl, 5 NaCl, 1 CaCl2, 1 MgCl2, 10 HEPES, and 10 EGTA, pH 7.2 adjusted with KOH. The external solution contained (in mM): 140 NaCl, 5 KCl, 2 CaCl2, 1 MgCl2, 10 glucose, and 10 HEPES, pH 7.4 adjusted with NaOH. Currents were elicited with a hyperpolarized voltage at −120 mV from the holding potential of −80 mV, followed by a ramp voltage depolarizing to +50 mV. Astrocytic resting membrane potentials were recorded under current‐clamp conditions (I = 0 pA) using standard internal and external solutions, determined immediately after achieving whole‐cell mode.

[1] = tested on: MDA-MB-468 breast cancer cells; assay: Cytotoxicity test (CCK-8); format: cell-based
Experimental: Cytotoxicity of all the tested compounds was determined using the cell counting kit‐8 (CCK‐8) assay kit (Beyotime, Shanghai, China). Briefly, MDA‐MB‐468 was cultured in L15 medium and plated in 96‐well plates at a density of 12,000 cells per well for 24 h at 37 °C in a 5% CO2 incubator. The tested compounds were dissolved in DMSO and diluted with culture medium (DMSO final concentration < 0.4%). Then the cells were treated with compounds (0.41, 1.23, 3.70, 11.11, 33.33, 100.00 µM) for 48 h. After treatments, removal of the supernatant liquor, 100 µL of new media diluted CCK‐8 solution (10% CCK‐8) was added into each well and incubated at 37 °C for 2 h. The absorbance of the mixture was directly measured at 450 nm. The results are presented as a percentage of the control.

[2] = +50 mV, read-out: Kir4.1 Inhibition ± SD (%) at 10 μM, +50 mV
[3] = -120 mV, read-out: Kir4.1 Inhibition ± SD (%) at 10 μM, -120 mV
[4] = Homo sapiens, MDA-MB-468, MDA-MB-468 breast cancer cells, read-out: IC50 ± SD (μM) for MDA-MB-468 Inhibition
[5] = +50 mV, read-out: Kir4.1 Inhibition ± SD (%) at 1 μM, +50 mV
[6] = -120 mV, read-out: Kir4.1 Inhibition ± SD (%) at 1 μM, -120 mV
[7] = MDA-MB-468 breast cancer cells, read-out: IC50 ± SD (μM) for MDA-MB-468 Inhibition
[8] = +50 mV, read-out: Kir4.1 Inhibition ± SD (%) at 0.5 μM, +50 mV
[9] = -120 mV, read-out: Kir4.1 Inhibition ± SD (%) at 0.5 μM, -120 mV

inhibition at 10 µM (Kir4.1; [2]) [%]	inhibition at 10 µM (Kir4.1; [3]) [%]	inhibition at 1 µM (Kir4.1; [5]) [%]	inhibition at 1 µM (Kir4.1; [6]) [%]	SMILES	IC50 [1, 4] [µM]	other results
36.5 ± 10.2	8.88 ± 10.2	–	–	c1ccc2cc(Nc3ccnc(NCCCN4CCOCC4)n3)ccc2c1 [JX3205, N^2-(3-morpholinopropyl)-N^4-(naphthalen-2-yl)pyrimidine-2,4-diamine]	16.9 ± 1.65	–
3.02 ± 1.37	4.04 ± 7.66	–	–	Nc1ccnc(NCCCN2CCOCC2)n1 [JX3201, N^2-(3-morpholinopropyl)pyrimidine-2,4-diamine]	> 50	–
85.9 ± 3.9	86.4 ± 4.85	-0.09 ± 6.09	5.58 ± 4.14	c1ccc2nc3ccc(Nc4ccnc(NCCCN5CCOCC5)n4)cc3cc2c1 [JX3209, N^4-(acridin-2-yl)-N^2-(3-morpholinopropyl)pyrimidine-2,4-diamine]	38.4 ± 4.21	–
26.8 ± 9.64	4.9 ± 7.34	–	–	c1ccc2c(c1)oc1ccc(N3CCC4(CC3)CN(CCCN3CCOCC3)C4)cc12 [JX3229, 4-(3-(7-(dibenzo[b,d]furan-2-yl)-2,7-diazaspiro[3.5]nonan-2-yl)propyl)morpholine]	29.5 ± 1.09	–
89.24 ± 0.5	70.8 ± 2.5	5 ± 5.21	-4.25 ± 7.82	O=C(NCCNc1nccc(Nc2ccc3oc4ccccc4c3c2)n1)N1CCOCC1 [JX3236, N-(2-((4-(dibenzo[b,d]furan-2-ylamino)pyrimidin-2-yl)amino)ethyl)morpholine-4-carboxamide]	21.9 ± 1.01	–
73 ± 3.72	17.1 ± 6.3	18.4 ± 3.79	0.88 ± 2.32	c1ccc2c(c1)oc1ccc(NC3CC4(CCN(CCCN5CCOCC5)CC4)C3)cc12 [JX3228, N-(dibenzo[b,d]furan-2-yl)-7-(3-morpholinopropyl)-7-azaspiro[3.5]nonan-2-amine]	11.2 ± 0.74	–
96.3 ± 1.23	90.5 ± 2.35	7.39 ± 3.45	4.14 ± 5.52	c1ccc2c(c1)oc1ccc(Nc3ccnc(OCCCN4CCOCC4)n3)cc12 [JX3231, N-(dibenzo[b,d]furan-2-yl)-2-(3-morpholinopropoxy)pyrimidin-4-amine]	19.7 ± 0.5	–
–	–	–	–	c1ccc2c(c1)oc1ccc(N[C@H]3CC[C@@H](NCCCN4CCOCC4)CC3)cc12 [JX3226, (1s,4s)-N^1-(dibenzo[b,d]furan-2-yl)-N^4-(3-morpholinopropyl)cyclohexane-1,4-diamine]	–	Kir4.1 Inhibition ± SD (%) at 1 μM, +50 mV (Kir4.1; 1 μM, +50 mV): 3.35 ± 4.46%; Kir4.1 Inhibition ± SD (%) at 1 μM, -120 mV (Kir4.1; 1 μM, -120 mV): 6.91 ± 6.13%; Kir4.1 Inhibition ± SD (%) at 10 μM, +50 mV (Kir4.1; +50 mV): 94.03 ± 1.98%; Kir4.1 Inhibition ± SD (%) at 10 μM, -120 mV (Kir4.1; -120 mV): 86.98 ± 0.69%; IC50 [1, 7]: 19.5 ± 1.64 µM
87.3 ± 6.4	71.1 ± 6.03	5.55 ± 2.74	-0.94 ± 6.65	c1ccc2c(c1)oc1ccc(Nc3cc(NCCCN4CCOCC4)ncn3)cc12 [JX3222, N^4-(dibenzo[b,d]furan-2-yl)-N^6-(3-morpholinopropyl)pyrimidine-4,6-diamine]	44 ± 1.48	–
96.94 ± 0.69	93.2 ± 1.48	6.81 ± 4.5	-2.25 ± 0.47	CN(CCCN1CCOCC1)c1nccc(Nc2ccc3oc4ccccc4c3c2)n1 [JX3232, N^4-(dibenzo[b,d]furan-2-yl)-N^2-methyl-N^2-(3-morpholinopropyl)pyrimidine-2,4-diamine]	6.77 ± 0.68	–
89.2 ± 1.72	81 ± 2.36	28.8 ± 5.45	21.3 ± 8.61	O=C1c2ccccc2-c2cc(Nc3ccnc(NCCCN4CCOCC4)n3)ccc21 [JX3211, 3-((2-((3-morpholinopropyl)amino)pyrimidin-4-yl)amino)-9H-fluoren-9-one]	29.8 ± 0.5	–
96.6 ± 1.38	97 ± 1.86	76 ± 1.81	64.6 ± 5.93	CCn1c2ccccc2c2cc(Nc3ccnc(NCCCN4CCOCC4)n3)ccc21 [EHop-016, N ^4‐(9‐ethyl‐9H‐carbazole‐3‐yl)‐N ^2‐(3‐morpholinopropyl)pyrimidine‐2,4‐diamine, reference compound]	–	inhibition at 0.5 µM (Kir4.1; [8]): 17.2 ± 2.53%; inhibition at 0.5 µM (Kir4.1; [9]): 19 ± 3.75%; IC50 (Kir4.1; CHO cells transiently expressing Kir4.1, +50 mV, read-out: IC50 for Kir4.1 inhibition (+50 mV, outward currents)): 0.61 µM; IC50 (Kir4.1; CHO cells transiently expressing Kir4.1, −120 mV, read-out: IC50 for Kir4.1 inhibition (−120 mV, inward currents)): 0.74 µM; IC50 ([1]; Homo sapiens, MDA-MB-468, 48 h, CCK-8, 48 h, read-out: IC50 against MDA-MB-468 breast cancer cells): 5.98 ± 0.67 µM
97.4 ± 1.14	88.3 ± 4.59	44 ± 9.96	30.4 ± 8.64	c1ccc2c(c1)oc1ccc(Nc3ccnc(NCCCN4CCCOCC4)n3)cc12 [JX3250, N^2-(3-(1,4-oxazepan-4-yl)propyl)-N^4-(dibenzo[b,d]furan-2-yl)pyrimidine-2,4-diamine]	12.2 ± 0.87	–
89.1 ± 3.59	73.8 ± 0.93	12.5 ± 7.25	7.65 ± 4.73	CC(C)(C)OC(=O)NCCCNc1nccc(Nc2ccc3oc4ccccc4c3c2)n1 [JX3237, tert-butyl (3-((4-(dibenzo[b,d]furan-2-ylamino)pyrimidin-2-yl)amino)propyl)carbamate]	4.84 ± 0.06	–
2.61 ± 1.87	3.98 ± 1.6	–	–	c1cc(NCCCN2CCOCC2)nc(Nc2ccc3oc4ccccc4c3c2)c1 [JX3220, N^2-(dibenzo[b,d]furan-2-yl)-N^6-(3-morpholinopropyl)pyridine-2,6-diamine]	8.74 ± 0.36	–
97.46 ± 0.83	97.35 ± 0.65	90 ± 1.44	84.7 ± 4.13	CC1(C)C2CN(CCCNc3nccc(Nc4ccc5oc6ccccc6c5c4)n3)CC21 (centres unmarked) [JX3240, N^4-(dibenzo[b,d]furan-2-yl)-N^2-(3-(6,6-dimethyl-3-azabicyclo[3.1.0]hexan-3-yl)propyl)pyrimidine-2,4-diamine]	5.37 ± 0.22	inhibition at 0.5 µM (Kir4.1; [8]): -0.92 ± 3.58%; inhibition at 0.5 µM (Kir4.1; [9]): -0.29 ± 1.05%
–	–	–	–	c1cc(NC23CC4CC(CC(C4)C2)C3)nc(NCCCN2CCOCC2)n1 [JX3203, N^4-((1s,3s)-adamantan-1-yl)-N^2-(3-morpholinopropyl)pyrimidine-2,4-diamine]	–	Kir4.1 Inhibition ± SD (%) at 10 μM, +50 mV (Kir4.1; +50 mV): 64.79 ± 0.85%; Kir4.1 Inhibition ± SD (%) at 10 μM, -120 mV (Kir4.1; -120 mV): 31.27 ± 3.29%; IC50 [1, 7]: 22.2 ± 5.05 µM
98.74 ± 0.36	98.6 ± 0.56	-1.39 ± 1.64	0.17 ± 1.63	c1ccc2c(c1)oc1ccc(Nc3ccnc(NCCCN4CCSCC4)n3)cc12 [JX3243, N^4-(dibenzo[b,d]furan-2-yl)-N^2-(3-thiomorpholinopropyl)pyrimidine-2,4-diamine]	7.11 ± 0.62	–
